Each structure is given as a SMILES string.

The term half-life denotes the time in which the quantity being followed falls by half. The term IC50 denotes the point on the concentration scale where inhibition reaches its midpoint. By logP is commonly meant a log measure of how a compound divides between an organic and an aqueous phase. The low end stands for lower lipophilicity, the high end for higher lipophilicity. Usually clearance stands for the rate of elimination divided by the concentration. The low end stands for a low capacity for elimination, the high end for a high capacity for elimination.

Series [1] in a line: Half life in human liver microsomes at 1 uM in presence of NADPH. For orientation: Liver microsomes are vesicles of endoplasmic reticulum, rich in cytochrome P450 enzymes.
Series [2] can be described thus: Half life in rat liver microsomes at 1 uM in presence of NADPH.
Series [3] deals with CYP3A4/5 (Homo sapiens, UniProt P08684+P20815). Nature of the series: Reversible inhibition of CYP3A4/5 in human liver microsomes using midazolam as substrate preincubated for 30 mins followed by NADPH and substrate addition measured after 10 mins. It counts as ADME, Microsome. Conditions: probe midazolam.
Series [4] is described as follows: Lipophilicity, log P of the compound. It counts as physicochemical. Conditions: octanol/water.
Series [5] in a line: Half life in Sprague-Dawley rat at <= 1 mg/kg, iv. It counts as ADME, organism-based. Set-up: dose 1 mg/kg, route intravenous. Conditions: in vivo.
The nature of series [6]: Volume of distribution at steady state in Sprague-Dawley rat at <= 1 mg/kg, iv. Format: ADME, organism-based. Further details: dose 1 mg/kg, route intravenous. Conditions: in vivo, read-out: Vdss.
The nature of series [7]: Clearance in Sprague-Dawley rat at <= 1 mg/kg, iv. It counts as ADME, organism-based. Set-up: dose 1 mg/kg, route intravenous. Conditions: in vivo.

Consider `O=C(Nc1ccc(C(F)(F)F)cc1)c1ccc(C2(C(F)(F)F)CC2)cc1`, for which the half-life at 1 µM was > 6.75 h in series [1] (microsomes) and 0.667 h in series [2] (microsomes).
Regarding `CC(C)(C)c1ccc(-c2ccc(F)cn2)cc1`, in series [3], the IC50 at 10 min was > 50 µM. For the same compound, the half-life at 1 µM was determined as 0.45 h in series [1] (microsomes) and 0.4 h in series [2] (microsomes).
Consider `Fc1ccc(-c2ccc(C3(C(F)(F)F)CC3)cc2)nc1`, for which the IC50 at 10 min in series [3] is > 50 µM. Moreover, the half-life at 1 µM in series [1] (liver microsomes) was 1.07 h; in series [2] (liver microsomes), > 6.75 h.
Turning to `CC(C)(C)c1ccc(-c2ccnc(C#N)c2)cc1`, the half-life at 1 µM in series [1] (liver microsomes) came out at 0.417 h; in series [2] (liver microsomes), 0.133 h.
Turning to `N#Cc1cc(-c2ccc(C3(C(F)(F)F)CC3)cc2)ccn1`, the values for the half-life at 1 µM in series [1] (liver microsomes) and in series [2] (liver microsomes) were 1.15 h and 1.25 h, respectively.
With `C[C@]12C=CC(=O)N[C@@H]1CC[C@@H]1[C@@H]2CC[C@]2(C)[C@@H](C(=O)NC3(C(F)(F)F)CC3)CC[C@@H]12`, the half-life at 1 µM in series [1] (liver microsomes) came to 1.9 h.
Consider `CC(C)(C)c1ccc(-c2ccc(C#N)cn2)cc1`, for which the IC50 at 10 min in series [3] was > 50 µM. Also, the logP in series [4] is 4.2. For the same compound, the half-life in series [5] was 2.3 h. For the same compound, the results for the half-life at 1 µM in series [1] (microsomes) and in series [2] (microsomes) were 0.85 h and 0.5 h, respectively. Moreover, the Vd in series [6] turned out to be 2.5 L/kg. In series [7], this compound returned a clearance of 20 mL/min/kg.
On to `CC(C)(CO)c1ccc(-c2ccc(C#N)cn2)cc1`, for which the half-life at 1 µM in series [1] (microsomes) was found to be 3.37 h; in series [2] (microsomes), 2.08 h.
The like results for `CC(C)(C#N)c1ccc(-c2ccc(C#N)cn2)cc1` were, in that order, 2.03 h and 1.17 h.
In the same order, the values of `CC(C)(C(=O)O)c1ccc(-c2ccc(C#N)cn2)cc1` are 4.57 h and 2.25 h.
In the case of `CC1(c2ccc(-c3ccc(C#N)cn3)cc2)COC1`, the IC50 at 10 min in series [3] is > 50 µM. The half-life in series [5] was 0.4 h. Further, the half-life at 1 µM in series [1] (microsomes) was 0.633 h; in series [2] (microsomes) it was 0.617 h. In series [6], the Vd came to 1.3 L/kg. The clearance in series [7] turned out to be 28 mL/min/kg.
Consider `CC(C)c1ccc(-c2ccc(C#N)cn2)cc1`, for which the half-inhibitory concentration (IC50) at 10 min in series [3] is > 50 µM. Also, the figures for the half-life at 1 µM in series [1] (microsomes) and in series [2] (microsomes) were 0.15 h and 0.117 h, respectively.
As for `CC(c1ccc(-c2ccc(C#N)cn2)cc1)C(F)(F)F` (centres undefined), the values for the half-life at 1 µM in series [1] (microsomes) and in series [2] (microsomes) were 1.1 h and 0.417 h, respectively.
For the compound `N#Cc1ccc(-c2ccc(C3(C(F)(F)F)CC3)cc2)nc1`, in series [3], the IC50 at 10 min was > 50 µM. Besides, in series [4], the log partition coefficient (logP) worked out at 4. The compound also gave a half-life in series [5] of 9.1 h. Moreover, the half-life at 1 µM in series [1] (liver microsomes) is 2.5 h; in series [2] (liver microsomes), > 6.67 h. Moreover, the Vd in series [6] worked out at 3.4 L/kg. Further, in series [7], the clearance turned out to be 4.6 mL/min/kg.
On to `N#Cc1ccc(-c2ccc(C3(C(F)(F)F)CC3)nc2)nc1`, for which the half-life at 1 µM was 1.83 h in series [1] (liver microsomes) and 2.15 h in series [2] (liver microsomes).
For `CC(C)(C)c1ccc(C(=O)Nc2ccc(C(F)(F)F)nc2)cc1`, in series [3], the IC50 at 10 min was > 50 µM. This compound also had a half-life in series [5] of 0.2 h. Moreover, the figures for the half-life at 1 µM in series [1] (liver microsomes) and in series [2] (liver microsomes) were 0.683 h and 0.417 h, respectively. The Vd in series [6] stood at 5.4 L/kg. In addition, in series [7], the clearance turned out to be 352 mL/min/kg.
On to `O=C(Nc1ccc(C(F)(F)F)nc1)c1ccc(C2(C(F)(F)F)CC2)cc1`, for which the IC50 at 10 min in series [3] was > 50 µM. The compound also gave a half-life in series [5] of 3.4 h. The values for the half-life at 1 µM in series [1] (liver microsomes) and in series [2] (liver microsomes) were > 6.75 h and 3.28 h, respectively. In series [6], the Vd was 6.2 L/kg. The compound further yielded a clearance in series [7] of 25 mL/min/kg.
In the case of `CC(C)(C)c1ccc(C(=O)Nc2ccc(C#N)nc2)cc1`, the values for the half-life at 1 µM in series [1] (liver microsomes) and in series [2] (liver microsomes) were 0.85 h and 0.4 h, respectively.
Take `N#Cc1ccc(NC(=O)c2ccc(C3(C(F)(F)F)CC3)cc2)cn1`: the half-life at 1 µM in series [1] (liver microsomes) was 1.47 h; in series [2] (liver microsomes) it was 1.63 h.
For `CC(C)(C)c1ccc(C(=O)Nc2ccc(C#N)cc2)cc1`, the half-life at 1 µM was found to be 1.42 h in series [1] (liver microsomes) and 0.2 h in series [2] (liver microsomes).
On to `N#Cc1ccc(NC(=O)c2ccc(C3(C(F)(F)F)CC3)cc2)cc1`, for which the values for the half-life at 1 µM in series [1] (microsomes) and in series [2] (microsomes) were > 6.75 h and 0.783 h, respectively.
For the compound `CC(C)(C)c1ccc(C(=O)Nc2ccc(C(F)(F)F)cc2)cc1`, the values for the half-life at 1 µM in series [1] (liver microsomes) and in series [2] (liver microsomes) were 0.483 h and 0.2 h, respectively.
For the compound `CC(C)(C)NC(=O)[C@H]1CC[C@H]2[C@@H]3CC[C@H]4NC(=O)C=C[C@]4(C)[C@H]3CC[C@]12C` [FINASTERIDE], in series [1] (microsomes), the half-life at 1 µM was determined as 1.05 h.
